Source: ChEMBL document CHEMBL4011631, “Trisubstituted Pyridinylimidazoles as Potent Inhibitors of the Clinically Resistant L858R/T790M/C797S EGFR Mutant: Targeting of Both Hydrophobic Regions and the Phosphate Binding Site” (J Med Chem, 2017)

How the values were obtained:
[1] = target: Epidermal growth factor receptor (Homo sapiens, UniProt P00533, L858R)
[2] = target: Epidermal growth factor receptor (Homo sapiens, UniProt P00533); assay type: ADME
Description: Inhibition of human N-terminal GST-fused EGFR cytoplasmic domain (669 to 1210 residues) expressed in baculovirus using TK-substrate-biotin preincubated for 30 mins followed by substrate addition measured after 25 mins by HTFR assay

[3] = target: Epidermal growth factor receptor (Homo sapiens, UniProt P00533, L858R/T790M)
A-431 = test: cells; assay type: ADME, cell-based; details: Homo sapiens, A-431, 96 h
Description: Antiproliferative activity against human A431 cells harboring wild type EGFR assessed as growth inhibition after 96 hrs by CellTiter-Glo assay

NCI-H1975 = test: cells; assay type: functional, cell-based; details: Homo sapiens, NCI-H1975, 96 h
[4] = target: Epidermal growth factor receptor (Homo sapiens, UniProt P00533, C797S/L858R/T790M); test: Inhibition of human EGFR T790M/C797S/L858R triple mutant preincubated for 20 mins followed by [33P]ATP addition measured after 2 hrs
Chain of Epidermal growth factor receptor (Homo sapiens, UniProt P00533, C797S/L858R/T790M) (P00533 25-1210 T790M/C797S/L858R limits assumed): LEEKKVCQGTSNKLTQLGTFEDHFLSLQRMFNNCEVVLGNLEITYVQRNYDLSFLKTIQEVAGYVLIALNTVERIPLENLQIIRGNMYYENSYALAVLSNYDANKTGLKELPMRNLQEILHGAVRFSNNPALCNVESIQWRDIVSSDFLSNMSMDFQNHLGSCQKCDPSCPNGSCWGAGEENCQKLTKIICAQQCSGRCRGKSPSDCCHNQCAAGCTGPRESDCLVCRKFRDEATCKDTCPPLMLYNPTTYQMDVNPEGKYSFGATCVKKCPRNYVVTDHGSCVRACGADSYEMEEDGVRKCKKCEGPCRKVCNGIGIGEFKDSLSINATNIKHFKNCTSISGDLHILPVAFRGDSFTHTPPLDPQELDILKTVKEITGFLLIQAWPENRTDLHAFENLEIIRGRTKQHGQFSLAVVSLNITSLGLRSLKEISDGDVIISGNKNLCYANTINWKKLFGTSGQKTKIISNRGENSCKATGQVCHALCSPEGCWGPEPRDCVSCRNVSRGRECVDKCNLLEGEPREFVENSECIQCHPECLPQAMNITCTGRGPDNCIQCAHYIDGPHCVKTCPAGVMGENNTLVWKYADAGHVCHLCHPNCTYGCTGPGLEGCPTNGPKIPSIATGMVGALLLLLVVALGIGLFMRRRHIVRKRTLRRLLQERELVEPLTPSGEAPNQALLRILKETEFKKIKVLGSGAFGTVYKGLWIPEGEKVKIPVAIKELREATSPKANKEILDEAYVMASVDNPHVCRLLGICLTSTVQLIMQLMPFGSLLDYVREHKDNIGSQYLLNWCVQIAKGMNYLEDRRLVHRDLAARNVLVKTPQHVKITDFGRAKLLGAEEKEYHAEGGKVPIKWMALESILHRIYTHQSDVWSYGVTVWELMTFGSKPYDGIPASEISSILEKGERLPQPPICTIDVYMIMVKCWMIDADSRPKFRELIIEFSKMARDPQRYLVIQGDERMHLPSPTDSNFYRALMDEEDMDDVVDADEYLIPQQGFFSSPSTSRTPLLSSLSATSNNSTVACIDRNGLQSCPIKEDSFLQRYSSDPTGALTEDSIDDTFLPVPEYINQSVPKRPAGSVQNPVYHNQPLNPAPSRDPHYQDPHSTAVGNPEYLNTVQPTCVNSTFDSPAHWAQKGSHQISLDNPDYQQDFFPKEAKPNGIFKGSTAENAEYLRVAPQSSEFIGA

Chain of Epidermal growth factor receptor (Homo sapiens, UniProt P00533, L858R/T790M) (P00533 25-1210 T790M/L858R limits assumed): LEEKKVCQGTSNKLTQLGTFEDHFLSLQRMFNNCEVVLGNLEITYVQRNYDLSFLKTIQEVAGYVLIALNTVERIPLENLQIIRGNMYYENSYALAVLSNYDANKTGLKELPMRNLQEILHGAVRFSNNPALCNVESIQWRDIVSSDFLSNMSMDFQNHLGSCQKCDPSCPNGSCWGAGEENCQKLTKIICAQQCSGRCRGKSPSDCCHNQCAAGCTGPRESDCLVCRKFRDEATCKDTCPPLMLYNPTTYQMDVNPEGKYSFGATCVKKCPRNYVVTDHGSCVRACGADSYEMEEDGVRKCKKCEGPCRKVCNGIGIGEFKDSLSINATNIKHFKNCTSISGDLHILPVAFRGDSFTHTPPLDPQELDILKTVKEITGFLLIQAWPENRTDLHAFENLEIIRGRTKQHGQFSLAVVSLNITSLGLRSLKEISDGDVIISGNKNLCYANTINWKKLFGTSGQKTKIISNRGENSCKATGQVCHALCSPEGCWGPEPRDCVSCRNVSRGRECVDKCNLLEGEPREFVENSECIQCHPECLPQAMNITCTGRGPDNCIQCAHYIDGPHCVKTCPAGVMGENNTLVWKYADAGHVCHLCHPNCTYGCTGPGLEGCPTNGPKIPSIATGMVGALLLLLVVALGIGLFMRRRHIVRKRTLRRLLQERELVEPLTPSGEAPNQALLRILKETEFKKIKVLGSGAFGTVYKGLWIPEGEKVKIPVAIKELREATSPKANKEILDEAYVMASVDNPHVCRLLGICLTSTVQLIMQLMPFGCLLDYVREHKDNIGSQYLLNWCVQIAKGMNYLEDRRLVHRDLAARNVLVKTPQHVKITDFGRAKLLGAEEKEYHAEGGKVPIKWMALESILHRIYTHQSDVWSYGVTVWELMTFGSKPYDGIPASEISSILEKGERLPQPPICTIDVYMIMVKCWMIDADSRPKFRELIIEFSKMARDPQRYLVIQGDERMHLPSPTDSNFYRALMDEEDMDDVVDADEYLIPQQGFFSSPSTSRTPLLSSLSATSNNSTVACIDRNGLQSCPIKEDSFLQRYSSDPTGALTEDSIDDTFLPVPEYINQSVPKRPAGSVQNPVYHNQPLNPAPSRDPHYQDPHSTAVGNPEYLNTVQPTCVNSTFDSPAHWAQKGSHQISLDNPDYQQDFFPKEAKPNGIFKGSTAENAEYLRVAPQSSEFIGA
Chain of Epidermal growth factor receptor (Homo sapiens, UniProt P00533, L858R) (P00533 25-1210 L858R limits assumed): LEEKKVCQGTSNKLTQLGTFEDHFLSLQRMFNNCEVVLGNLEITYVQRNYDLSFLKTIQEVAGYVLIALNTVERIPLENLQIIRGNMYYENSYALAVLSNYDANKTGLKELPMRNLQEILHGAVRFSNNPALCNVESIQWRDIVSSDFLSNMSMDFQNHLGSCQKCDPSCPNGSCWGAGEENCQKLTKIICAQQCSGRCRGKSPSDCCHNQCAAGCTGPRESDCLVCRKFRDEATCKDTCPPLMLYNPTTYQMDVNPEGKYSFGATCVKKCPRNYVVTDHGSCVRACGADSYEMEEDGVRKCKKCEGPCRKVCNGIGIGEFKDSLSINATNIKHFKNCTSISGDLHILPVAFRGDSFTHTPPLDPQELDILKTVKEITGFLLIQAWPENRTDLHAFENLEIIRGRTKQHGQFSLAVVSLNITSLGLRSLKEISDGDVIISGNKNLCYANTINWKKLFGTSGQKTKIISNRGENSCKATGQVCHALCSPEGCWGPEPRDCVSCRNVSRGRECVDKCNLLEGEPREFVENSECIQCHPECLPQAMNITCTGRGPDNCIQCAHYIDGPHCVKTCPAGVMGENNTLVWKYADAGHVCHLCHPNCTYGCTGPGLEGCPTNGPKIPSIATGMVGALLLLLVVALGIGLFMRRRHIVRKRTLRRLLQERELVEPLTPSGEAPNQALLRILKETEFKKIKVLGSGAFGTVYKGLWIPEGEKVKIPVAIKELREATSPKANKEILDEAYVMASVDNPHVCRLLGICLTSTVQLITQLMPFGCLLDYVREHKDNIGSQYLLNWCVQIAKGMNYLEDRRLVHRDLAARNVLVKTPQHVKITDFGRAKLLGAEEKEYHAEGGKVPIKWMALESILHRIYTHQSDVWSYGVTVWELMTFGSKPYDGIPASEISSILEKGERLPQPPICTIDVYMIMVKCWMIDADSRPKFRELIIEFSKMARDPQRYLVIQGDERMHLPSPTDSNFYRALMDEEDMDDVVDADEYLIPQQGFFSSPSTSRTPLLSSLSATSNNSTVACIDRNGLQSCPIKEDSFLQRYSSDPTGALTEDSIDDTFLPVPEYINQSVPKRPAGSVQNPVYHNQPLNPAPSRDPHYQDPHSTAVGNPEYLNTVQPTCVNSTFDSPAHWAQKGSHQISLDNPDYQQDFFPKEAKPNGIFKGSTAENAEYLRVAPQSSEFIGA
Chain of Epidermal growth factor receptor (Homo sapiens, UniProt P00533) (P00533 whole entry): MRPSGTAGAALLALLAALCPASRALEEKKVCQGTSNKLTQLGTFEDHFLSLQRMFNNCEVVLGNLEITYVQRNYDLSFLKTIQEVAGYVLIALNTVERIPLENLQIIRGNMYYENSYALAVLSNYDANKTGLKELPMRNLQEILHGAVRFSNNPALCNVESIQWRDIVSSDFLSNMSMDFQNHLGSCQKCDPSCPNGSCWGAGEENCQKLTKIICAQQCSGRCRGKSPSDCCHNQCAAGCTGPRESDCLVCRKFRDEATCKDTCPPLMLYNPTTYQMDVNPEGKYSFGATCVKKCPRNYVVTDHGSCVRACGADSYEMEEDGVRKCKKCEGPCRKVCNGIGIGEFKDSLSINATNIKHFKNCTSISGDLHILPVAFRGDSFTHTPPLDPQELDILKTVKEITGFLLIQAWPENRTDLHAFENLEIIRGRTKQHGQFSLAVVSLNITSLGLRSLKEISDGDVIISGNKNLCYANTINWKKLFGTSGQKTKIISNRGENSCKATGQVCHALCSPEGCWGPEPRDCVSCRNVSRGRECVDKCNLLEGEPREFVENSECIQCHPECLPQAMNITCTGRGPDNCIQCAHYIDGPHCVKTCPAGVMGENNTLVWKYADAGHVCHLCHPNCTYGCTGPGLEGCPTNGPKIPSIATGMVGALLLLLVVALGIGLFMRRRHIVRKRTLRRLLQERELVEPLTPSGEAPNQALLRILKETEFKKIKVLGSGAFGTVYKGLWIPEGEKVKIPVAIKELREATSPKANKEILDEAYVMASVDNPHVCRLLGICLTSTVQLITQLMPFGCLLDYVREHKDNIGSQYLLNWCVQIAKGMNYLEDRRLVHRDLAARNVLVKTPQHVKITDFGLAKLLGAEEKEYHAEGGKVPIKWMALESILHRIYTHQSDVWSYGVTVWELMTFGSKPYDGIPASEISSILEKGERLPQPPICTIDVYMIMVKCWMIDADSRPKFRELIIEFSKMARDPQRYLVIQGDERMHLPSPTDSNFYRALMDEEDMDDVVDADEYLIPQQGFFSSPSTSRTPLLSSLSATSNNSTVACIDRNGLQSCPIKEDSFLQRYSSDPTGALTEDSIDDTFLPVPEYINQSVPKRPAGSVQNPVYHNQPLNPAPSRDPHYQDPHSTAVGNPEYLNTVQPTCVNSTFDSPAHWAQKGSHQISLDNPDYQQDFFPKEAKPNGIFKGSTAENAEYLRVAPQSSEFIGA

CSc1nc(-c2ccc(F)cc2)c(-c2ccnc(Nc3ccccc3)c2)[nH]1
IC50 [1]: 2.5 nM
IC50 [2]: 24 nM
IC50 [3]: 130 nM
EC50 (A-431): 11000 nM
EC50 (NCI-H1975): 22000 nM

C=CC(=O)NCc1cccc(Nc2cc(-c3[nH]c(SC)nc3-c3ccc(F)cc3)ccn2)c1
IC50 [1]: 4.9 nM
IC50 [2]: 16 nM
IC50 [3]: 89 nM
EC50 (A-431): 14000 nM
EC50 (NCI-H1975): 3400 nM

C=CC(=O)NCCCSc1nc(-c2ccc(F)cc2)c(-c2ccnc(Nc3ccccc3)c2)[nH]1
IC50 [1]: 22 nM
IC50 [2]: 16 nM
IC50 [3]: 321 nM
EC50 (A-431): 1400 nM
EC50 (NCI-H1975): 1300 nM

NCCSc1nc(-c2ccc(F)cc2)c(-c2ccnc(Nc3ccccc3)c2)[nH]1
IC50 [1]: 2.6 nM
IC50 [2]: 4.8 nM
IC50 [3]: 29 nM
EC50 (A-431): 11000 nM
EC50 (NCI-H1975): 7200 nM

C=CC(=O)Nc1ccc(OC)c(Nc2cc(-c3[nH]c(SC)nc3C3CCCC3)ccn2)c1
IC50 [1]: < 1 nM
IC50 [2]: < 1 nM
IC50 [3]: 4.5 nM
EC50 (A-431): 7800 nM
EC50 (NCI-H1975): 1400 nM

C=CC(=O)Nc1ccc(OC)c(Nc2cc(-c3[nH]c(SC)nc3C)ccn2)c1
IC50 [1]: 10 nM
IC50 [2]: 32 nM
IC50 [3]: 33 nM
EC50 (A-431): 9700 nM
EC50 (NCI-H1975): 4100 nM

C=CC(=O)Nc1cccc(Nc2cc(-c3[nH]c(SCCNC(=O)CC)nc3-c3ccccc3)ccn2)c1
IC50 [1]: < 1 nM
IC50 [2]: < 1 nM
IC50 [3]: 2.5 nM
EC50 (A-431): 1500 nM
EC50 (NCI-H1975): 2800 nM

C=CC(=O)NCCSc1nc(-c2ccccc2)c(-c2ccnc(Nc3ccccc3)c2)[nH]1
IC50 [1]: 1.7 nM
IC50 [2]: 12 nM
IC50 [3]: 29 nM
EC50 (A-431): 11000 nM
EC50 (NCI-H1975): 3200 nM

N#CCCSc1nc(-c2ccc(F)cc2)c(-c2ccnc(Nc3ccccc3)c2)[nH]1
IC50 [1]: 40 nM
IC50 [2]: 109 nM
IC50 [3]: 746 nM
EC50 (A-431): 17000 nM
EC50 (NCI-H1975): 16000 nM

C=CC(=O)Nc1cccc(Nc2cc(-c3[nH]c(SC)nc3-c3ccc(F)cc3)ccn2)n1
IC50 [1]: < 1 nM
IC50 [2]: < 1 nM
IC50 [3]: 3.1 nM
EC50 (A-431): 1700 nM
EC50 (NCI-H1975): 1500 nM

NCCCSc1nc(-c2ccc(F)cc2)c(-c2ccnc(Nc3ccccc3)c2)[nH]1
IC50 [1]: 12 nM
IC50 [2]: 55 nM
IC50 [3]: 240 nM
EC50 (A-431): 7400 nM
EC50 (NCI-H1975): 8400 nM

C=CC(=O)Nc1ccc(OC)c(Nc2cc(-c3[nH]c(SC)nc3C3CCC3)ccn2)c1
IC50 [1]: < 1 nM
IC50 [2]: < 1 nM
IC50 [3]: 6.8 nM
EC50 (A-431): 8900 nM
EC50 (NCI-H1975): 2000 nM

C=CC(=O)N1CCC(Sc2nc(-c3ccc(F)cc3)c(-c3ccnc(Nc4ccccc4)c3)[nH]2)C1 (stereo not drawn)
IC50 [1]: 25 nM
IC50 [2]: 217 nM
IC50 [3]: 417 nM
EC50 (A-431): 17000 nM
EC50 (NCI-H1975): 14000 nM

C=CC(=O)N1CCC[C@@H]1CSc1nc(-c2ccc(F)cc2)c(-c2ccnc(Nc3ccccc3)c2)[nH]1
EC50 (A-431): 6900 nM
EC50 (NCI-H1975): 3400 nM

CN(C)C/C=C/C(=O)NCCSc1nc(-c2ccc(F)cc2)c(-c2ccnc(Nc3ccccc3)c2)[nH]1
IC50 [1]: 1.9 nM
IC50 [2]: 2.7 nM
IC50 [3]: 18 nM
EC50 (A-431): 6600 nM
EC50 (NCI-H1975): > 5000 nM

C=CC(=O)Nc1cccc(Oc2nc(Nc3ccc(N4CCN(C)CC4)cc3OC)ncc2Cl)c1
EC50 (A-431): 2200 nM
EC50 (NCI-H1975): 100 nM

C=CC(=O)NCCSc1nc(-c2ccc(F)c(C(F)(F)F)c2)c(-c2ccnc(Nc3ccccc3)c2)[nH]1
IC50 [1]: 144 nM
IC50 [2]: 45 nM
IC50 [3]: 646 nM
EC50 (A-431): 11000 nM
EC50 (NCI-H1975): 3100 nM

C=CC(=O)Nc1ccc(OC)c(Nc2cc(-c3[nH]c(SC)nc3-c3cccs3)ccn2)c1
IC50 [1]: < 1 nM
IC50 [2]: < 1 nM
IC50 [3]: < 1 nM
EC50 (A-431): 7400 nM
EC50 (NCI-H1975): 84 nM

CCC(=O)NCCSc1nc(-c2ccc(F)cc2)c(-c2ccnc(Nc3ccccc3)c2)[nH]1
IC50 [1]: 3.2 nM
IC50 [2]: 33 nM
IC50 [3]: 52 nM
EC50 (A-431): 16000 nM
EC50 (NCI-H1975): 9700 nM

CSc1nc(-c2ccc(F)cc2)c(-c2ccnc(Nc3cc(N4CCN(C)CC4)cc([N+](=O)[O-])c3)c2)[nH]1
IC50 [1]: < 1 nM
IC50 [2]: 2.1 nM
IC50 [3]: 12 nM
EC50 (A-431): 7800 nM
EC50 (NCI-H1975): 13000 nM

C=CC(=O)Nc1ccc(OC)c(Nc2cc(-c3[nH]c(SC)nc3C(C)(C)C)ccn2)c1
IC50 [1]: 16 nM
IC50 [2]: 57 nM
IC50 [3]: 485 nM
EC50 (A-431): 20000 nM
EC50 (NCI-H1975): 18000 nM

CC(=O)CCCSc1nc(-c2ccc(F)cc2)c(-c2ccnc(Nc3ccccc3)c2)[nH]1
IC50 [1]: 76 nM
IC50 [2]: 185 nM
IC50 [3]: 1330 nM
EC50 (A-431): 12000 nM
EC50 (NCI-H1975): 14000 nM

C=CC(=O)NCc1cn(Cc2cccc(Nc3cc(-c4[nH]c(SC)nc4-c4ccc(F)cc4)ccn3)c2)nn1
IC50 [1]: 46 nM
IC50 [2]: 164 nM
IC50 [3]: 597 nM
EC50 (A-431): 24000 nM
EC50 (NCI-H1975): 23000 nM

CCC(=O)Nc1ccc(OC)c(Nc2cc(-c3[nH]c(CCCO)nc3-c3ccc(F)cc3)ccn2)c1
IC50 [1]: < 1 nM
IC50 [2]: < 1 nM
IC50 [3]: < 1 nM
EC50 (A-431): 17000 nM
EC50 (NCI-H1975): 7200 nM
IC50 [4]: 7 nM

CSc1nc(-c2ccc(F)cc2)c(-c2ccnc(Nc3cc(F)cc([N+](=O)[O-])c3)c2)[nH]1
IC50 [1]: 55 nM
IC50 [2]: 265 nM
IC50 [3]: 586 nM
EC50 (A-431): 19000 nM
EC50 (NCI-H1975): 30000 nM

C=CC(=O)Nc1cc(Nc2cc(-c3[nH]c(SC)nc3-c3ccc(F)cc3)ccn2)cc(N2CCOCC2)c1
IC50 [1]: < 1 nM
IC50 [2]: < 1 nM
IC50 [3]: < 1 nM
EC50 (A-431): 1500 nM
EC50 (NCI-H1975): 1300 nM
IC50 [4]: 53 nM

Fc1ccc(-c2nc(SCCN3CCOCC3)[nH]c2-c2ccnc(Nc3ccccc3)c2)cc1
IC50 [1]: 75 nM
IC50 [2]: 183 nM
IC50 [3]: 1250 nM
EC50 (A-431): 10000 nM
EC50 (NCI-H1975): 15000 nM

C=CC(=O)N1CCC[C@H]1CSc1nc(-c2ccc(F)cc2)c(-c2ccnc(Nc3ccccc3)c2)[nH]1
EC50 (A-431): 8800 nM
EC50 (NCI-H1975): 4700 nM

CCC(=O)Nc1ccc(OC)c(Nc2cc(-c3[nH]c(SC)nc3-c3ccc(F)cc3)ccn2)c1
IC50 [1]: < 1 nM
IC50 [2]: < 1 nM
IC50 [3]: 5 nM
EC50 (A-431): 7700 nM
EC50 (NCI-H1975): 4300 nM
IC50 [4]: 167 nM

C=CC(=O)Nc1ccc(OC)c(Nc2cc(-c3cnc(SC)[nH]3)ccn2)c1
IC50 [1]: 5.6 nM
IC50 [2]: 17 nM
IC50 [3]: 8.6 nM
EC50 (A-431): 4100 nM
EC50 (NCI-H1975): 2000 nM

CN(C)C(=O)CSc1nc(-c2ccc(F)cc2)c(-c2ccnc(Nc3ccccc3)c2)[nH]1
EC50 (A-431): 18000 nM
EC50 (NCI-H1975): 16000 nM

C=CC(=O)Nc1ccc(OC)c(Nc2cc(-c3[nH]c(SC)nc3-c3ccc4ccccc4c3)ccn2)c1
IC50 [1]: < 1 nM
IC50 [2]: < 1 nM
IC50 [3]: 1.1 nM
EC50 (A-431): 3000 nM
EC50 (NCI-H1975): 380 nM

OCCSc1nc(-c2ccc(F)cc2)c(-c2ccnc(Nc3ccccc3)c2)[nH]1
IC50 [1]: 1.1 nM
IC50 [2]: 11 nM
IC50 [3]: 83 nM
EC50 (A-431): 11000 nM
EC50 (NCI-H1975): 16000 nM

C=CC(=O)Nc1ccc(OC)c(Nc2cc(-c3[nH]c(SC)nc3C3CC3)ccn2)c1
IC50 [1]: < 1 nM
IC50 [2]: 2.3 nM
IC50 [3]: 7.4 nM
EC50 (A-431): 8000 nM
EC50 (NCI-H1975): 2300 nM

CCC(=O)Nc1ccc(OC)c(Nc2cc(-c3cnc(SC)[nH]3)ccn2)c1
IC50 [1]: 360 nM
IC50 [2]: 1770 nM
IC50 [3]: 3510 nM
EC50 (A-431): 13000 nM
EC50 (NCI-H1975): > 30000 nM
